Assay results from ChEMBL document CHEMBL5038655, “Development of Novel Dihydrofuro[3,4-d]pyrimidine Derivatives as HIV-1 NNRTIs to Overcome the Highly Resistant Mutant Strains F227L/V106A and K103N/Y181C” (J Med Chem, 2022).
Converted amounts (≈) assume the structure as drawn.

Assays:
[1] = molecular target: Human immunodeficiency virus type 1 reverse transcriptase (Human immunodeficiency virus 1, UniProt Q72547); experiment: Inhibition of wild type HIV-1 reverse transcriptase using biotin-labelled dNTPs as substrate incubated for 2 hrs by ELISA
[2] = system: Human immunodeficiency virus 1; experiment: Antiviral activity against HIV-1 harboring reverse transcriptase E138K mutant infected in human MT4 cells assessed as protection against virus-induced cytopathic effect incubated for 5 days by MTT assay; details: Human immunodeficiency virus 1, MT4, 120 h
[3] = Selectivity index, ratio of CC50 for human MT4 cells to EC50 for antiviral activity against HIV-1 IIIB infected in human MT4 cells; assay type: toxicity, cell-based; details: MT4 cells (uninfected and infected with HIV-1 IIIB), read-out: Ratio CC50/EC50
[4] = system: Human immunodeficiency virus 1; experiment: Antiviral activity against HIV-1 IIIB harboring K103N/Y181C double mutant infected in human MT4 cells assessed as protection against virus-induced cytotoxicity incubated for 5 days by MTT assay; assay type: functional, organism-based; details: Human immunodeficiency virus 1, IIIB, MT4, 120 h
[5] = Cytotoxicity against human MT4 cells assessed as reduction in cell viability incubated for 5 days by MTT assay; assay type: toxicity, cell-based; details: time 5 day
[6] = system: Human immunodeficiency virus 1; experiment: Antiviral activity against HIV-1 harboring reverse transcriptase F227L/V106A mutant infected in human MT4 cells assessed as protection against virus-induced cytopathic effect incubated for 5 days by MTT assay; details: Human immunodeficiency virus 1, MT4, 120 h
[7] = system: Human immunodeficiency virus 1; experiment: Antiviral activity against HIV-1 IIIB infected in human MT4 cells assessed as protection against virus-induced cytotoxicity incubated for 5 days by MTT assay; assay type: functional, organism-based; details: Human immunodeficiency virus 1, IIIB, MT4, 120 h
[8] = system: Human immunodeficiency virus 1; experiment: Antiviral activity against HIV1 L1001 infected in human MT4 cells assessed as protection against virus-induced cytopathic effect incubated for 5 days by MTT assay; assay type: functional, organism-based; details: Human immunodeficiency virus 1, L1001, MT4, 120 h
[9] = system: Human immunodeficiency virus 1; experiment: Antiviral activity against HIV-1 harboring reverse transcriptase Y181C mutant infected in human MT4 cells assessed as protection against virus-induced cytopathic effect incubated for 5 days by MTT assay; details: Human immunodeficiency virus 1, MT4, 120 h
[10] = Selectivity index, ratio of CC50 for human MT4 cells to EC50 for antiviral activity against HIV-1 IIIB harboring K103N/Y181C double mutant infected in human MT4 cells; assay type: toxicity, cell-based; details: read-out: Ratio CC50/EC50
[11] = system: Human immunodeficiency virus 1; experiment: Antiviral activity against HIV-1 harboring reverse transcriptase K103N mutant infected in human MT4 cells assessed as protection against virus-induced cytopathic effect incubated for 5 days by MTT assay; details: Human immunodeficiency virus 1, MT4, 120 h
[12] = system: Human immunodeficiency virus 1; experiment: Antiviral activity against HIV-1 harboring reverse transcriptase Y188L mutant infected in human MT4 cells assessed as protection against virus-induced cytopathic effect incubated for 5 days by MTT assay; details: Human immunodeficiency virus 1, MT4, 120 h
[13] = Aqueous solubility of the compound at pH 7.0 by HPLC analysis; assay type: physicochemical; details: buffer
[14] = Aqueous solubility of the compound at pH 7.4 by HPLC analysis; assay type: physicochemical; details: buffer
[15] = system: Human immunodeficiency virus 1; experiment: Potency index, ratio of rilpivirine EC50 to test compound EC50 for antiviral activity against HIV-1 harboring reverse transcriptase F227L/V106A mutant infected in human MT4 cells assessed as protection against virus-induced cytopathic effect incubated for 5 days by MTT assay; assay type: functional; details: time 5 day
[16] = Oral bioavailability in Sprague-Dawley rat at 10 mg/kg measured upto 12 hrs by LC-MS/MS analysis; assay type: ADME, organism-based; details: in vivo
[17] = AUC(0 to t) in Sprague-Dawley rat at 10 mg/kg, po measured upto 12 hrs by LC-MS/MS analysis; assay type: ADME, organism-based; set-up: route oral, dose 10 mg/kg, time <=12; details: in vivo
[18] = system: Human immunodeficiency virus 1; experiment: Potency index, ratio of rilpivirine EC50 to test compound EC50 for antiviral activity against HIV-1 harboring reverse transcriptase Y188L mutant infected in human MT4 cells assessed as protection against virus-induced cytopathic effect incubated for 5 days by MTT assay; assay type: functional; details: time 5 day
[19] = Terminal half life in Sprague-Dawley rat at 2 mg/kg, iv measured upto 10 hrs by LC-MS/MS analysis; assay type: ADME, organism-based; details: in vivo, read-out: beta t1/2 (converted)
[20] = AUC(0 to t) in Sprague-Dawley rat at 2 mg/kg, iv measured upto 10 hrs by LC-MS/MS analysis; assay type: ADME, organism-based; set-up: route intravenous, dose 2 mg/kg, time <=10; details: in vivo
[21] = Tmax in Sprague-Dawley rat at 10 mg/kg, po measured upto 12 hrs by LC-MS/MS analysis; assay type: ADME, organism-based; details: in vivo
[22] = Clearance in Sprague-Dawley rat at 2 mg/kg, iv measured upto 10 hrs by LC-MS/MS analysis; assay type: ADME, organism-based; details: in vivo
[23] = Cmax in Sprague-Dawley rat at 10 mg/kg, po measured upto 12 hrs by LC-MS/MS analysis; assay type: ADME, organism-based; set-up: route oral, dose 10 mg/kg, time <=12; details: in vivo
[24] = Tmax in Sprague-Dawley rat at 2 mg/kg, iv measured upto 10 hrs by LC-MS/MS analysis; assay type: ADME, organism-based; details: in vivo
[25] = Acute toxicity in Kunming mouse assessed as change in body weight at 2000 mg/kg, po measured for 7 days; assay type: organism-based; details: in vivo, time 7 day
[26] = Terminal half life in Sprague-Dawley rat at 10 mg/kg, po measured upto 12 hrs by LC-MS/MS analysis; assay type: ADME, organism-based; details: in vivo, read-out: beta t1/2 (converted)
[27] = AUC(0 to infinity) in Sprague-Dawley rat at 2 mg/kg, iv measured upto 10 hrs by LC-MS/MS analysis; assay type: ADME, organism-based; set-up: route intravenous, dose 2 mg/kg, time <=10; details: in vivo
[28] = AUC(0 to infinity) in Sprague-Dawley rat at 10 mg/kg, po measured upto 12 hrs by LC-MS/MS analysis; assay type: ADME, organism-based; set-up: route oral, dose 10 mg/kg, time <=12; details: in vivo
[29] = Aqueous solubility of the compound at pH 2.0 by HPLC analysis; assay type: physicochemical; details: buffer
[30] = Cmax in Sprague-Dawley rat at 2 mg/kg, iv measured upto 10 hrs by LC-MS/MS analysis; assay type: ADME, organism-based; set-up: route intravenous, dose 2 mg/kg, time <=10; details: in vivo

Q: For `Cc1cc(/C=C/C#N)cc(C)c1Oc1nc(Nc2ccc(N3CCC(NS(N)(=O)=O)C3)cc2)nc2c1COC2` (stereo not given), which IC50 [1] is on record?
A: 1060 nM

Q: Which IC50 [1] does the source give for `Cc1cc(/C=C/C#N)cc(C)c1Oc1nc(Nc2ccc(C3CCCN(S(C)(=O)=O)CC3)cc2)nc2c1COC2` (stereo not given) here?
A: 230 nM

Q: Which EC50 [2] does the source give for `Cc1cc(/C=C/C#N)cc(C)c1Oc1nc(NC2CCN(Cc3ccc(N)cc3)CC2)nc2c1COC2` here?
A: 9.16 nM

Q: What about the selectivity ratio [3] of the same compound?
A: 8020

Q: And the EC50 [4]?
A: 53.5 nM

Q: And the CC50 at 120 h [5]?
A: 27 µM

Q: What about the EC50 [6] of the same compound?
A: 37.6 nM

Q: What about the EC50 [7] of the same compound?
A: 3.37 nM

Q: What about the EC50 [8] of the same compound?
A: 10.2 nM

Q: And the EC50 [9]?
A: 9.36 nM

Q: And the IC50 [1]?
A: 190 nM

Q: And the selectivity ratio [10]?
A: 505

Q: And the EC50 [11]?
A: 5.58 nM

Q: And the EC50 [12]?
A: 51.4 nM

Q: For `Cc1cc(/C=C/C#N)cc(C)c1Oc1nc(Nc2ccc(N3CCN(S(N)(=O)=O)CC3)cc2)nc2c1COC2`, which IC50 [1] is on record?
A: 710 nM

Q: With `Cc1cc(/C=C/C#N)cc(C)c1Oc1nc(NC2CCN(c3ccc(C(N)=O)cc3)CC2)nc2c1COC2` as the compound, how does the selectivity ratio [3] read?
A: > 97900

Q: And the EC50 [4]?
A: 992 nM

Q: And the CC50 at 120 h [5]?
A: > 233 µM

Q: And the EC50 [7]?
A: 2.38 nM

Q: And the IC50 [1]?
A: 60 nM

Q: What about the selectivity ratio [10] of the same compound?
A: > 234

Q: For `Cc1cc(/C=C/C#N)cc(C)c1Oc1nc(Nc2ccc(N3CCC(NS(N)(=O)=O)CC3)cc2)nc2c1COC2`, which IC50 [1] is on record?
A: 1320 nM

Q: With `Cc1cc(/C=C/C#N)cc(C)c1Oc1nc(Nc2ccc(C#N)cc2)nc2c1COC2` as the compound, how does the IC50 [1] read?
A: 60 nM

Q: With `Cc1cc(/C=C/C#N)cc(C)c1Oc1nc(Nc2ccc(N3CCC(NS(C)(=O)=O)C3)cc2)nc2c1COC2` (stereo not given) as the compound, how does the IC50 [1] read?
A: 180 nM

Q: Which EC50 [2] does the source give for `Cc1cc(/C=C/C#N)cc(C)c1Oc1nc(NC2CCN(Cc3ccc(S(C)(=O)=O)cc3)CC2)nc2c1COC2` here?
A: 15.4 nM

Q: And the selectivity ratio [3]?
A: 2260

Q: What about the EC50 [4] of the same compound?
A: 34.6 nM

Q: What about the CC50 at 120 h [5] of the same compound?
A: 9.79 µM

Q: And the EC50 [6]?
A: 16.3 nM

Q: And the EC50 [7]?
A: 4.33 nM

Q: What about the EC50 [8] of the same compound?
A: 5.18 nM

Q: And the EC50 [9]?
A: 9.96 nM

Q: And the IC50 [1]?
A: 150 nM

Q: What about the selectivity ratio [10] of the same compound?
A: 283

Q: And the EC50 [11]?
A: 6.47 nM

Q: And the EC50 [12]?
A: 41.4 nM

Q: Which results are given for `Cc1cc(/C=C/C#N)cc(C)c1Nc1ccnc(Nc2ccc(C#N)cc2)n1` [RILPIVIRINE]?
A: solubility [13]: < 1 µg/mL; solubility [14]: < 1 µg/mL

Q: Which selectivity ratio [3] does the source give for `Cc1cc(/C=C/C#N)cc(C)c1Oc1nc(NC2CCN(c3ccc(N)cc3)CC2)nc2c1COC2` here?
A: 258

Q: And the EC50 [4]?
A: 249 nM

Q: And the CC50 at 120 h [5]?
A: 9.14 µM

Q: What about the EC50 [7] of the same compound?
A: 35.4 nM

Q: And the IC50 [1]?
A: 180 nM

Q: And the selectivity ratio [10]?
A: 37

Q: Which IC50 [1] does the source give for `Cc1cc(/C=C/C#N)cc(C)c1Oc1nc(Nc2ccc(N3CCCC(NS(C)(=O)=O)C3)cc2)nc2c1COC2` (stereo not given) here?
A: 1240 nM

Q: Which “Ratio EC50” value [15] does the source give for `Cc1cc(/C=C/C#N)cc(C)c1Oc1nc(NC2CCN(Cc3ccc(C(N)=O)cc3)CC2)nc2c1COC2` here?
A: 8.4

Q: What about the EC50 [2] of the same compound?
A: 6.76 nM

Q: What about the selectivity ratio [3] of the same compound?
A: 8450

Q: What about the EC50 [4] of the same compound?
A: 11.7 nM

Q: What about the CC50 at 120 h [5] of the same compound?
A: 24.1 µM

Q: And the bioavailability [16]?
A: 32.1%

Q: And the AUC(0-t) at 12 h [17]?
A: 801 ng·h/mL

Q: And the “Ratio EC50” value [18]?
A: 4.4

Q: What about the EC50 [6] of the same compound?
A: 9.67 nM

Q: And the half-life [19]?
A: 52.8 min

Q: And the EC50 [7]?
A: 2.85 nM

Q: What about the EC50 [8] of the same compound?
A: 3.9 nM

Q: What about the AUC(0-t) at 10 h [20] of the same compound?
A: 409 ng·h/mL

Q: And the Tmax [21]?
A: 2.12 h

Q: And the EC50 [9]?
A: 6.09 nM

Q: What about the IC50 [1] of the same compound?
A: 140 nM

Q: What about the clearance [22] of the same compound?
A: 66.3 mL/min/kg

Q: What about the selectivity ratio [10] of the same compound?
A: 2060

Q: What about the Cmax [23] of the same compound?
A: 250 ng/mL

Q: And the solubility [13]?
A: 25.4 µg/mL (≈ 48.4 µM)

Q: And the Tmax [24]?
A: 1.98 min

Q: What about the solubility [14] of the same compound?
A: 5.24 µg/mL (≈ 9.99 µM)

Q: What about the Activity [25] of the same compound?
A: Non-Toxic

Q: And the EC50 [11]?
A: 2.14 nM

Q: And the half-life [26]?
A: 63 min

Q: What about the AUC(0-inf) [27] of the same compound?
A: 503 ng·h/mL

Q: And the AUC(0-inf) [28]?
A: 809 ng·h/mL

Q: And the solubility [29]?
A: 187 µg/mL (≈ 356 µM)

Q: What about the Cmax [30] of the same compound?
A: 480 ng/mL

Q: What about the EC50 [12] of the same compound?
A: 18 nM
